Source: patent US20080096852A1, “USE OF OCULOSURFACE SELECTIVE GLUCOCORTICOID IN THE TREATMENT OF DRY EYE” (Alcon,Inc., priority 2002, published 2008)

How the values were obtained:
[1] = tested on: dry eye in patients with autoimmune connective tissue disease; conditions: human patients; suspensions 0.005%, 0.05% and 0.1%; one drop each eye four times per day for six weeks
Text: Three different suspensions, containing rimexolone at concentrations of 0.005%, 0.05% and 0.1%, respectively, were utilized in the study. A fourth formulation, which was identical to the three rimexolone suspensions except for the elimination of rimexolone, was utilized as a control (i.e., placebo).
The patients in each group administered one drop of the respective formulations to each eye four times per day for six weeks. Following the end of the six week drug administration period, the patients' symptoms were evaluated.

[2] = tested on: dry eye induced in New Zealand white rabbits; test: Tear breakup time (TBUT) in rabbit dry eye model (lacrimal gland inflammation); assay type: in vivo
Procedure: The ability of low doses of rimexolone to alleviate dry eye conditions was evaluated. […] The experimental procedures are described below. Dry eye was induced in New Zealand white rabbits (approximately 2 kg) by eliciting bilateral inflammation of the lacrimal glands. Tear function was assessed by measuring tear breakup time (“TBUT”) daily for three days, following the induction of dry eye. TBUT was determined by instilling […] into the cul de sac and manually blinking the lids to distribute the fluorescein within the tear film. Under slit lamp observation, the eye was held open and the time to tear film breakup recorded. Efficacy was determined by comparing TBUT relative to pre-inflammation baseline values in drug and vehicle treated animals. In a separate group of animals, susceptibility to desiccation-induced corneal injury was assessed following the induction of lacrimal gland inflammation. Desiccation was initiated by placing the rabbits in a low humidity environment continuously for up to three days. Corneal injury was assessed by determining the uptake of the vital dye, methylene blue. Under general anesthesia, the ocular surface was bathed in a 1% solution of methylene blue for five minutes and then washed. The animals were euthanized, eyes were excised and an 8 mm-diameter section of cornea was isolated and extracted overnight. The concentration of extracted dye was determined spectrophotometrically ([…]). Protection of the cornea is indicated by a lesser uptake of dye in drug treated animals relative to that in vehicle treated rabbits. For both TBUT and corneal injury determinations, dosing (QID) was initiated 24-hours prior to inducing inflammation and was continued for the duration of the study. A second dose-response study was conducted using the procedures described in Example 2 above.

[3] = tested on: desiccation-induced corneal injury in rabbits; test: Desiccation-induced corneal injury (methylene blue uptake) after lacrimal gland inflammation; assay type: in vivo, New Zealand white rabbits; conditions: rabbit
Procedure: The ability of low doses of rimexolone to alleviate dry eye conditions was evaluated. […] The experimental procedures are described below. In a separate group of animals, susceptibility to desiccation-induced corneal injury was assessed following the induction of lacrimal gland inflammation. Desiccation was initiated by placing the rabbits in a low humidity environment continuously for up to three days. Corneal injury was assessed by determining the uptake of the vital dye, methylene blue. Under general anesthesia, the ocular surface was bathed in a 1% solution of methylene blue for five minutes and then washed. The animals were euthanized, eyes were excised and an 8 mm-diameter section of cornea was isolated and extracted overnight. The concentration of extracted dye was determined spectrophotometrically ([…]). Protection of the cornea is indicated by a lesser uptake of dye in drug treated animals relative to that in vehicle treated rabbits. For both TBUT and corneal injury determinations, dosing (QID) was initiated 24-hours prior to inducing inflammation and was continued for the duration of the study. A second dose-response study was conducted using the procedures described in Example 2 above.

[4] = Example 2, tested 0.005%, 0.01%, 0.05 and 0.1%
[5] = Example 3 (second dose-response study)

CCC(=O)[C@@]1(C)[C@H](C)C[C@H]2[C@@H]3CCC4=CC(=O)C=C[C@]4(C)[C@H]3[C@@H](O)C[C@@]21C [rimexolone]
dry eye symptoms (discomfort) versus vehicle/placebo [1]: less dry eye symptoms
increases in intraocular pressure [1]: did not exhibit any clinically relevant increases in intraocular pressure
TBUT expressed as percent of baseline on day three ([2]; Example 2, rimexolone 0.1% suspension, QID, FIG. 1): 66 % of baseline
maximally effective concentration for restoration of TBUT [2, 4]: 0.1%
maximally effective concentration for restoration of TBUT [2, 5]: 0.1%
TBUT restored, percent of baseline on day three ([2]; Example 3 (second dose-response study), rimexolone 0.1%, FIG. 3): 71 % of baseline
inhibition of desiccation-induced corneal injury (peak efficacy) ([3]; Example 2, rimexolone 0.1% suspension, QID, FIG. 2): 74 % inhibition
maximally effective concentration for prevention of desiccation-induced corneal staining [3, 4]: 0.1%
maximally effective concentration for prevention of desiccation-induced corneal staining [3, 5]: 0.1%
inhibition of corneal staining ([3]; Example 3 (second dose-response study), rimexolone 0.1%, FIG. 4): 77%
